Series [1] deals with DLD-1. Kind of series: MTS assay, DLD-1. Type of series: cell-based. The note with it: Homo sapiens, 72 hours, 1 Percent FBS. In general terms: Tetrazolium dyes change colour on reduction, which living cells bring about.
In series [2] the test system is MDA-MB-231. Kind of series: MTS assay, MDA-MB-231. The format is cell-based. The note with it: Homo sapiens, 72 hours, 1 Percent FBS.

Where a name gives a salt, the structure may show the parent alone.

As usually defined, the melting point is the temperature of the solid-liquid transition. Compound `CNc1nccc(-c2cc(NC(=O)c3ccc(C(C)(C)C)cc3)c3cc(OC)ccc3c2)n1` [Compound 184, 4-tert-butyl-N-{7-methoxy-3-[2-(methylamino)pyrimidin-4-yl]-1-naphthyl}benzamide] yielded a melting point of 231 to 232 °C.

The compound `CNc1nccc(-c2cc(NCCCNc3ncnc4[nH]nc(Br)c34)c3cc(OC)ccc3c2)n1` [Compound 183, N1-(3-bromo-1H-pyrazolo[3,4-d]pyrimidin-4-yl)-N3-(7-methoxy-3-(2-(methylamino)pyrimidin-4-yl)naphthalen-1-yl)propane-1,3-diamine] came in with a melting point of 145 to 148 °C.

In turn, `CNc1nccc(-c2cc(NC(=O)CNCCO)c3cc(OC)ccc3c2)n1` [Compound 138, 2-((2-hydroxyethyl)amino)-N-(7-methoxy-3-(2-(methylamino)pyrimidin-4-yl)naphthalen-1-yl)acetamide] registered a melting point of 169 to 172 °C.

As to `COc1cccc(CCNc2nccc(-c3cc(N4CCNCC4)c4cc(OC)ccc4c3)n2)c1` [Compound 115, N-[2-(3-methoxyphenyl)ethyl]-4-(6-methoxy-4-piperazin-1-yl-2-naphthyl)pyrimidin-2-amine], the melting point fell in the range of 142 to 144 °C.

In turn, `COc1ccc2cc(-c3ccnc(NCCc4ccc(OC)c(OC)c4)n3)cc(N3CCN(c4ncnc5[nH]nc(Br)c45)CC3)c2c1` [Compound 179, 4-{4-[4-(3-bromo-1H-pyrazolo[3,4-d]pyrimidin-4-yl)piperazin-1-yl]-6-methoxy-2-naphthyl}-N-[2-(3,4-dimethoxyphenyl)ethyl]pyrimidin-2-amine] displayed a melting point of 130 to 133 °C.

Regarding `CCN(CC)CCCN1CCN(c2cc(-c3ccnc(NCc4cccc(OC)c4)n3)cc3ccc(OC)cc23)CC1` (as salt: hydrochloride) [Compound 197, 4-(4-(4-(3-(diethylamino)propyl)piperazin-1-yl)-6-methoxynaphthalen-2-yl)-N-(3-methoxybenzyl)pyrimidin-2-amine], the melting point is 156 to 160 °C.

In turn, `CNc1nccc(-c2cc(NC(=O)CN(C)C)c3cc(OC)ccc3c2)n1` [Compound 137, 2-(dimethylamino)-N-(7-methoxy-3-(2-(methylamino)pyrimidin-4-yl)naphthalen-1-yl)acetamide] returned a melting point of 70 to 73 °C.

Compound `COc1cccc(CNc2nccc(-c3cc(N4CCN(CCCN5CCOCC5)CC4)c4cc(OC)ccc4c3)n2)c1` [Compound 196, 4-(6-methoxy-4-(4-(3-morpholinopropyl)piperazin-1-yl)naphthalen-2-yl)-N-(3-methoxybenzyl)pyrimidin-2-amine] yielded a melting point of 65 to 73 °C.

`CCCN(C)CCCN1CCN(c2cc(-c3ccnc(NCc4cccc(OC)c4)n3)cc3ccc(OC)cc23)CC1` (as salt: hydrochloride) [Compound 199, 4-(6-methoxy-4-(4-(3-(methyl(propyl)amino)propyl)piperazin-1-yl)naphthalen-2-yl)-N-(3-methoxybenzyl)pyrimidin-2-amine] gave a melting point of 156 to 160 °C.

For the compound `CNc1nccc(-c2cc(NC(=O)c3ccc(OC)cc3)c3cc(OC)ccc3c2)n1` [Compound 188, 4-methoxy-N-{7-methoxy-3-[2-(methylamino)pyrimidin-4-yl]-1-naphthyl}benzamide], the melting point is 214 to 215 °C.

`CNc1nccc(-c2cc(NC(C)=O)c3cc(OC)ccc3c2)n1` [Compound 186, N-{7-methoxy-3-[2-(methylamino)pyrimidin-4-yl]-1-naphthyl}acetamide] came in with a melting point of 234 to 235 °C.

`COc1cccc(CNc2nccc(-c3cc(N4CCN(CCCN5CCC5)CC4)c4cc(OC)ccc4c3)n2)c1` (as salt: hydrochloride) [Compound 200, 4-(4-(4-(3-(azetidin-1-yl)propyl)piperazin-1-yl)-6-methoxynaphthalen-2-yl)-N-(3-methoxybenzyl)pyrimidin-2-amine] registered a melting point of 122 to 130 °C.

Compound `COCCCNc1nccc(-c2cc(N3CCNCC3)c3cc(OC)ccc3c2)n1` [Compound 113, 4-(6-methoxy-4-piperazin-1-yl-2-naphthyl)-N-(3-methoxypropyl)pyrimidin-2-amine] gave a melting point of 136 to 138 °C.

The compound `COc1ccc2cc(-c3ccnc(NCCCN(C)C)n3)cc(N3CCNCC3)c2c1` [Compound 114, N′-[4-(6-methoxy-4-piperazin-1-yl-2-naphthyl)pyrimidin-2-yl]-N,N-dimethylpropane-1,3-diamine] had a melting point of 188 to 190 °C.

Broadly, the inhibition is the drop in the measured response relative to a control, in per cent. As for `CNc1nccc(-c2cc(NC(=O)CN3CCN(C4CCN(C)CC4)CC3)c3cc(OC)ccc3c2)n1` [Compound 83, N-{7-methoxy-3-[2-(methylamino)pyrimidin-4-yl]-1-naphthyl}-2-[4-(1-methylpiperidin-4-yl)piperazin-1-yl]acetamide], the inhibition at 10 µM in series [1] and in series [2] was 99% each time.

As to `COc1ccc2cc(-c3ccnc(NCC(C)(C)CN(C)C)n3)cc(N3CCOCC3)c2c1` [Compound 30, N′-[4-(6-methoxy-4-morpholin-4-yl-2-naphthyl)pyrimidin-2-yl]-N,N,2,2-tetramethylpropane-1,3-diamine], the inhibition at 10 µM was found to be 63% in series [1] and 78% in series [2].

With `COc1ccc2cc(-c3ccnc(NCc4cccc(C(F)(F)F)c4)n3)cc(N3CCNCC3)c2c1` [Compound 127, 4-(6-methoxy-4-piperazin-1-yl-2-naphthyl)-N-[3-(trifluoromethyl)benzyl] pyrimidin-2-amine], the results for the inhibition at 10 µM in series [1] and in series [2] were 97% and 99%, respectively.

Take `COc1ccc2cc(-c3ccnc(NC4CCN(C)CC4)n3)cc(N3CCOCC3)c2c1` [Compound 7, 4-(6-methoxy-4-morpholin-4-yl-2-naphthyl)-N-(1-methylpiperidin-4-yl)pyrimidin-2-amine]: the values for the inhibition at 10 µM in series [1] and in series [2] were 68% and 62%, respectively.

`COc1ccc2cc(-c3ccnc(NC4CC(C)(C)N(C)C(C)(C)C4)n3)cc(N3CCNCC3)c2c1` [Compound 118, 4-(6-methoxy-4-piperazin-1-yl-2-naphthyl)-N-(l,2,2,6,6-pentamethylpiperidin-4-yl)pyrimidin-2-amine]: the inhibition at 10 µM in series [1] and in series [2] was 96% in each case.

Turning to `CNc1nccc(-c2cc(NC(=O)CNCCOC)c3cc(OC)ccc3c2)n1` [Compound 85, N~2~-(2-methoxyethyl)-N-{7-methoxy-3-[2-(methylamino)pyrimidin-4-yl]-1-naphthyl}glycinamide], the inhibition at 10 µM turned out to be 98% in series [1] and 90% in series [2].

In the case of `COc1ccc2cc(-c3ccnc(NCC(C)(C)CN(C)C)n3)cc(N3CCNCC3)c2c1` [Compound 136, N′-[4-(6-methoxy-4-piperazin-1-yl-2-naphthyl)pyrimidin-2-yl]-N,N,2,2-tetramethylpropane-1,3-diamine], the inhibition at 10 µM was 97% in series [1] and 95% in series [2].

As to `CNc1nccc(-c2cc(NC(=O)CNCCOC(C)C)c3cc(OC)ccc3c2)n1` [Compound 53, N~2~-(2-isopropoxyethyl)-N-{7-methoxy-3-[2-(methylamino)pyrimidin-4-yl]-1-naphthyl}glycinamide], the inhibition at 10 µM is 92% in series [1] and 81% in series [2].

For the compound `COc1ccc2cc(-c3ccnc(NCCN4CCCC4)n3)cc(N3CCNCC3)c2c1` [Compound 133, 4-(6-methoxy-4-piperazin-1-yl-2-naphthyl)-N-(2-pyrrolidin-1-ylethyl)pyrimidin-2-amine], the inhibition at 10 µM stood at 97% in series [1] and 98% in series [2].

`CNc1nccc(-c2cc(NC(=O)CN3CCN(CC4CCN(C)CC4)CC3)c3cc(OC)ccc3c2)n1` [Compound 41, N-{7-methoxy-3-[2-(methylamino)pyrimidin-4-yl]-1-naphthyl}-2-{4-[(l-methylpiperidin-4-yl)methyl]piperazin-1-yl}acetamide]: the results for the inhibition at 10 µM in series [1] and in series [2] were 66% and 71%, respectively.

As for `COc1ccc(CCNc2nccc(-c3cc(NC(=O)OC(C)(C)C)c4cc(OC)ccc4c3)n2)cc1` [Compound 88, tert-butyl [7-methoxy-3-(2-{[2-(4-methoxyphenyl)ethyl]amino}pyrimidin-4-yl)-1-naphthyl]carbamate], the inhibition at 10 µM in series [1] turned out to be 90%; in series [2], 64%.

Regarding `COc1ccc2cc(-c3ccnc(NC4CCN(Cc5ccccc5)CC4)n3)cc(NC(=O)OC(C)(C)C)c2c1` [Compound 101, tert-butyl (3-{2-[(1-benzylpiperidin-4-yl)amino]pyrimidin-4-yl}-7-methoxy-1-naphthyl)carbamate], the inhibition at 10 µM in series [1] was 96%; in series [2], 98%.

`CNc1nccc(-c2cc(NC3CCN(c4cc(C(=N)N)cc(Cl)n4)CC3)c3cc(OC)ccc3c2)n1` [Compound 158, 2-chloro-6-[4-({7-methoxy-3-[2-(methylamino)pyrimidin-4-yl]-1-naphthyl}amino)piperidin-1-yl]pyridine-4-carboximidamide]: the inhibition at 10 µM in series [1] and in series [2] was 98% throughout.

For `COc1ccc2cc(-c3ccnc(NCCc4cccnc4)n3)cc(N3CCOCC3)c2c1` [Compound 21, 4-(6-methoxy-4-morpholin-4-yl-2-naphthyl)-N-(2-pyridin-3-ylethyl)pyrimidin-2-amine], the inhibition at 10 µM was found to be 97% in series [1] and 99% in series [2].

With `COc1ccc(CCNc2nccc(-c3cc(N4CCNCC4)c4cc(OC)ccc4c3)n2)cc1` [Compound 134, N-[2-(4-methoxyphenyl)ethyl]-4-(6-methoxy-4-piperazin-1-yl-2-naphthyl)pyrimidin-2-amine], the inhibition at 10 µM in series [1] is 97%; in series [2], 98%.

On to `COc1ccc2cc(-c3ccnc(NCCc4ccccc4OC)n3)cc(NC(=O)OC(C)(C)C)c2c1` [Compound 92, tert-butyl [7-methoxy-3-(2-{[2-(2-methoxyphenyl)ethyl]amino}pyrimidin-4-yl)-1-naphthyl]carbamate], for which the inhibition at 10 µM is 98% in series [1] and 99% in series [2].

The record behind these values is patent publication US8173808B2, “Substituted naphthalenyl-pyrimidine compounds” (ArQule, Inc., priority 2009, dated 2012).
